Laboratory results: ChEMBL document CHEMBL1137869 (Bioorg Med Chem Lett, 2004)

How the values were obtained:
[1] = biological target: T1, Platelet-derived growth factor receptor beta (Homo sapiens, UniProt P09619); assay: In vitro inhibition of Platelet derived growth factor receptor beta autophosphorylation in MG-63 cells with 45% human plasma; type: cell-based
[2] = biological target: T1, Platelet-derived growth factor receptor beta; assay: In vitro inhibition of Platelet derived growth factor receptor beta autophosphorylation in MG-63 cells without plasma; type: cell-based
[3] = Inhibition of PDGFR-beta/Flt-3 chimeric receptor autophosphorylation in CHO cells; type: cell-based
[4] = Inhibition of PDGFR-beta/c-Kit chimeric receptor autophosphorylation in CHO cells; type: cell-based
[5] = biological target: T1, Platelet-derived growth factor receptor beta; assay: Inhibition of Platelet derived growth factor receptor beta autophosphorylation in CHO cells; type: cell-based
[6] = Area under curve was determined in rat by peroral dose at 30 mg/kg; type: ADME, organism-based; set-up: dose 30 mg/kg, route oral; settings: in vivo, po
[7] = Plasma half life was determined in dog by iv/po dose at 8.09 mg/kg; type: ADME, organism-based, Canis lupus familiaris; set-up: dose 8.09 mg/kg
[8] = Plasma half life was determined in monkey by iv/po dose at 10 mg/kg; type: ADME, organism-based; set-up: dose 10 mg/kg; settings: cercopithecidae
[9] = Maximum concentration was determined in rat by iv/po dose at 30 mg/kg; type: ADME, organism-based; set-up: dose 30 mg/kg; settings: in vivo
[10] = Maximum concentration was determined in dog by iv/po dose at 8.09 mg/kg; type: ADME, organism-based, Canis lupus familiaris; set-up: dose 8.09 mg/kg; settings: in vivo
[11] = Maximum concentration was determined in monkey by iv/po dose at 10 mg/kg; type: ADME, organism-based; set-up: dose 10 mg/kg; settings: cercopithecidae, in vivo
[12] = Bioavailability in rat (dose 30 mg/kg i.v./p.o.); type: ADME, organism-based; settings: in vivo, po
[13] = Percent bioavailability was determined in dog by iv/po dose at 8.09 mg/kg; type: ADME, organism-based, Canis lupus familiaris; settings: in vivo
[14] = Plasma half life was determined in rat by iv/po dose at 30 mg/kg; type: ADME, organism-based; set-up: dose 30 mg/kg

T1 sequence (P09619 whole entry): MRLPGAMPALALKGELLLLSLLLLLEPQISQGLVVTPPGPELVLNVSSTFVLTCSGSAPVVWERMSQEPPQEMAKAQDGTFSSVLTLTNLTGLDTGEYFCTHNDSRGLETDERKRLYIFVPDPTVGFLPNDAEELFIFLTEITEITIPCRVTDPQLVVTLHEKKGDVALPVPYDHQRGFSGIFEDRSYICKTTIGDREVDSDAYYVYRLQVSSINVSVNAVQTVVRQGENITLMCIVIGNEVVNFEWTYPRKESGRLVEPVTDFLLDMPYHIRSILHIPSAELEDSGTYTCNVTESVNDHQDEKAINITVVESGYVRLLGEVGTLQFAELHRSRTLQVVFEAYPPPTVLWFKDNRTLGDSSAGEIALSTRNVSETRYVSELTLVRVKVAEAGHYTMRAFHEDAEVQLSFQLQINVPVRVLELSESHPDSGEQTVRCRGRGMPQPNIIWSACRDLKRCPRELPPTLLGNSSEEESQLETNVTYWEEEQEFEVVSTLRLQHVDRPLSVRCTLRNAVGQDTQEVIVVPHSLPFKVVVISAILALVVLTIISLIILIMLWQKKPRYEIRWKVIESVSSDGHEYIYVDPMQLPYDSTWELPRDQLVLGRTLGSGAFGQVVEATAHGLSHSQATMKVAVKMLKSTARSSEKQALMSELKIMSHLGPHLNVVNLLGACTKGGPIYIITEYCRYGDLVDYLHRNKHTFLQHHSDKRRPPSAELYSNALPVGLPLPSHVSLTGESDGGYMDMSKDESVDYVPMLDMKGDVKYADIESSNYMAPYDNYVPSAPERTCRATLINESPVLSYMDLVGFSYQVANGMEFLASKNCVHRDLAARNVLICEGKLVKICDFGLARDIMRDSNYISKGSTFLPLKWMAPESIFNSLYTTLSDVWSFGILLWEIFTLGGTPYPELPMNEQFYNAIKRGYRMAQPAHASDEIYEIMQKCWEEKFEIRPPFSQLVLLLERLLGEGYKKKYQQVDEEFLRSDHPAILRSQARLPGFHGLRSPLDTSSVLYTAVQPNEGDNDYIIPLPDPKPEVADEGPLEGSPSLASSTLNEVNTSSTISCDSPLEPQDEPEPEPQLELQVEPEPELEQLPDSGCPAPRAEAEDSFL

Structure (SMILES)	IC50 [1] [nM]	IC50 [2] [nM]	also measured
COc1cc2c(N3CCN(/C(S)=N\c4ccsc4)CC3)ncnc2cc1OCCN1CCCCC1	740	100	–
COc1cc2c(N3CCN(C(=S)NCc4ccc(-c5ccncc5)cc4)CC3)ncnc2cc1OCCN1CCCCC1	5040	9530	–
COc1cc2c(N3CCN(/C(S)=N\Cc4ccc(C(F)(F)F)nc4Cl)CC3)ncnc2cc1OCCN1CCCCC1	1400	1130	IC50 [3]: 6770 nM; IC50 [4]: 790 nM; IC50 [5]: 100 nM
COc1cc2c(N3CCN(/C(S)=N\Cc4ccc5c(c4)OCO5)CC3)ncnc2cc1OCCN1CCCC1	160	5	–
COc1cc2c(N3CCN(C(=S)Nc4ccc(Cl)nc4)CC3)ncnc2cc1OCCN1CCCCC1	510	890	IC50 [3]: 19800 nM; IC50 [4]: 500 nM; IC50 [5]: 360 nM
COc1cc2c(N3CCN(/C(S)=N\c4ccc(C(F)(F)F)nc4)CC3)ncnc2cc1OCCN1CCCCC1	1060	4100	–
COc1cc2c(N3CCN(/C(S)=N\Cc4ccc(C)o4)CC3)ncnc2cc1OCCCN1CCCCC1	90	80	IC50 [3]: > 30000 nM; IC50 [4]: 50 nM; IC50 [5]: 80 nM
COc1cc2c(N3CCN(C(=S)Nc4ccncc4)CC3)ncnc2cc1OCCCN1CCCCC1	60	220	IC50 [3]: 24200 nM; IC50 [4]: 1850 nM; IC50 [5]: 580 nM
COc1cc2c(N3CCN(/C(=N\Cc4ccc(C(C)C)cc4)NC#N)CC3)ncnc2cc1OCCCN1CCCCC1	970	920	–
COc1cc2c(N3CCN(C(=S)NCc4ccc5c(c4)OCO5)CC3)ncnc2cc1OCCN1CCCCC1	120	20	AUC [6]: 69 µg/h/mL; IC50 [3]: 2910 nM; IC50 [4]: 60 nM; half-life [7]: 15.7 h; half-life [8]: 9.25 h; Cmax [9]: 146 ng/mL; Cmax [10]: 456 ng/mL; Cmax [11]: 92.5 ng/mL; bioavailability [12]: 39.1%; bioavailability [13]: 102%; half-life [14]: 26.7 h; IC50 [5]: 40 nM
COc1cc2c(N3CCN(C(=NC#N)Nc4ccncc4)CC3)ncnc2cc1OCCCN1CCCCC1	17100	31700	–
COc1cc2c(N3CCN(/C(S)=N\Cc4ccc(C)nc4)CC3)ncnc2cc1OCCCN1CCCCC1	90	140	IC50 [3]: > 30000 nM; IC50 [4]: 240 nM; IC50 [5]: 140 nM
COc1cc2c(N3CCN(C(=S)NCc4ccc(C(F)(F)F)nc4)CC3)ncnc2cc1OCCN1CCCCC1	90	1030	IC50 [3]: > 30000 nM; IC50 [4]: 240 nM; IC50 [5]: 150 nM
COc1cc2c(N3CCN(/C(S)=N\c4ccc(Cl)nn4)CC3)ncnc2cc1OCCN1CCCCC1	1330	420	–
COc1cc2c(N3CCN(C(=S)Nc4cccnc4)CC3)ncnc2cc1OCCN1CCCCC1	4980	3760	–
COc1cc2c(N3CCN(C(=S)NCc4ccc(-c5cccnc5)cc4)CC3)ncnc2cc1OCCN1CCCCC1	5190	14800	–
COc1cc2c(N3CCN(C(=S)NCc4ccc(C)nc4Cl)CC3)ncnc2cc1OCCN1CCCCC1	350	1150	–
COc1cc2c(N3CCN(/C(S)=N\Cc4cccnc4)CC3)ncnc2cc1OCCCN1CCCCC1	320	50	–
COc1cc2c(N3CCN(/C(S)=N\Cc4ccnc(Cl)c4)CC3)ncnc2cc1OCCN1CCCCC1	770	1790	–

Structure (SMILES)	IC50 [1] [nM]	IC50 [2] [nM]	also measured
COc1cc2c(N3CCN(C(=S)NCc4ccc(-c5ccccc5)nc4)CC3)c(C#N)cnc2cc1OCCCN1CCCCC1	100	10	–
COc1cc2c(N3CCN(C(=S)Nc4ccc(-c5ccccn5)cc4)CC3)ncnc2cc1OCCCN1CCCCC1	100	220	–
COc1cc2c(N3CCN(C(=S)NCc4cnc(C)cn4)CC3)ncnc2cc1OCCCN1CCCCC1	50	140	IC50 [3]: > 30000 nM; IC50 [4]: 1520 nM; IC50 [5]: 1350 nM
COc1cc2c(N3CCN(/C(=N\Cc4ccc(C(F)(F)F)nc4)NC#N)CC3)ncnc2cc1OCCCN1CCCCC1	2180	3420	–
COc1cc2c(N3CCN(/C(=N\c4ccc(-c5ccccn5)cc4)NC#N)CC3)ncnc2cc1OCCCN1CCCCC1	370	420	–
COc1cc2c(N3CCN(C(=S)Nc4ccncc4)CC3)c(C#N)cnc2cc1OCCCN1CCCCC1	130	240	–
COc1cc2c(N3CCN(/C(S)=N\Cc4ccco4)CC3)ncnc2cc1OCCN1CCCC1	310	160	IC50 [3]: > 30000 nM; IC50 [4]: 1800 nM; IC50 [5]: 290 nM
COc1cc2c(N3CCN(C(=S)NCc4ccncc4)CC3)ncnc2cc1OCCCN1CCCCC1	2450	13400	–
COc1cc2c(N3CCN(C(=S)NCc4ccc(-c5ccccn5)cc4)CC3)ncnc2cc1OCCN1CCCCC1	1490	2130	–
COc1cc2c(N3CCN(C(=S)NCc4csc(C)n4)CC3)ncnc2cc1OCCCN1CCCCC1	450	630	–
COc1cc2c(N3CCN(C(=S)NCc4cnc(C)cn4)CC3)ncnc2cc1OCCN1CCOCC1	230	1360	–
COc1cc2c(N3CCN(/C(S)=N\Cc4ccc(-c5ccccc5)nc4)CC3)ncnc2cc1OCCCN1CCCCC1	130	20	–
COc1cc2c(N3CCN(/C(S)=N\c4ccc(-c5cccc[n+]5[O-])cc4)CC3)ncnc2cc1OCCN1CCCCC1	430	800	–
COc1cc2c(N3CCN(/C(S)=N\Cc4cccnc4)CC3)ncnc2cc1OCCN1CCCCC1	710	2110	–
COc1cc2c(N3CCN(C(=S)NCc4ccc(Cl)nc4)CC3)ncnc2cc1OCCN1CCCCC1	80	1010	IC50 [3]: > 30000 nM; IC50 [4]: 70 nM; IC50 [5]: 50 nM
COc1cc2c(N3CCN(/C(=N\Cc4cc(C)on4)NC#N)CC3)ncnc2cc1OCCCN1CCCCC1	2370	10500	–
COc1cc2c(N3CCN(C(=S)Nc4ccc(-c5ccccc5)nc4)CC3)ncnc2cc1OCCCN1CCCCC1	270	360	IC50 [3]: 5550 nM; IC50 [4]: 190 nM; IC50 [5]: 100 nM
COc1cc2c(N3CCN(/C(S)=N\c4ccc(C#N)cc4)CC3)c(C#N)cnc2cc1OCCCN1CCCCC1	120	5	–
COc1cc2c(N3CCN(/C(S)=N\c4nccs4)CC3)ncnc2cc1OCCN1CCCCC1	5040	2000	–

Structure (SMILES)	IC50 [1] [nM]	IC50 [2] [nM]	also measured
COc1cc2c(N3CCN(/C(=N\Cc4ccc5c(c4)OCO5)NC#N)CC3)ncnc2cc1OCCCN1CCCCC1	590	320	–
COc1cc2c(N3CCN(/C(S)=N\c4ccnc(C#N)c4)CC3)ncnc2cc1OCCN1CCCCC1	1790	1540	–
COc1cc2c(N3CCN(/C(S)=N\c4ccc(-c5ccccn5)cc4)CC3)c(C#N)cnc2cc1OCCCN1CCCCC1	130	220	–
COc1cc2c(N3CCN(/C(S)=N\c4ccc(Br)cc4)CC3)ncnc2cc1OCCN1CCOCC1	540	180	–
COc1cc2c(N3CCN(C(=S)NCc4ccc(N)nc4)CC3)ncnc2cc1OCCN1CCCCC1	2930	5810	–
COc1cc2c(N3CCN(/C(S)=N\c4ccc(Br)cc4)CC3)ncnc2cc1OCCN1CCCCC1	390	1010	–
COc1cc2c(N3CCN(/C(S)=N\Cc4ccc5c(c4)OCO5)CC3)ncnc2cc1OCCN1CCOCC1	260	100	–
COc1cc2c(N3CCN(/C(S)=N\Cc4ccc(C(F)(F)F)nc4)CC3)ncnc2cc1OCCCN1CCOCC1	50	5	–
COc1cc2c(N3CCN(C(=S)NCc4ccc(C(F)(F)F)nc4)CC3)ncnc2cc1OCCCN1CCCCC1	60	30	–
COc1cc2c(N3CCN(C(=S)NCc4csc(-c5ccc(C(F)(F)F)cc5)n4)CC3)ncnc2cc1OCCCN1CCCCC1	4470	3090	–
COc1cc2c(N3CCN(/C(S)=N\c4ccc(-c5ccccc5)nc4)CC3)c(C#N)cnc2cc1OCCCN1CCCCC1	280	150	–
COc1cc2c(N3CCN(C(=S)NCc4ccncc4)CC3)ncnc2cc1OCCN1CCCCC1	3590	12100	–
COc1cc2c(N3CCN(/C(S)=N\Cc4ccccn4)CC3)ncnc2cc1OCCN1CCCCC1	–	4090	–
COc1cc2c(N3CCN(C(=S)Nc4ccc(-c5ccccc5)cn4)CC3)ncnc2cc1OCCCN1CCCCC1	550	1980	–
COc1cc2c(N3CCN(C(=NC#N)Nc4ccc(C(C)(C)C)cc4)CC3)ncnc2cc1OCCCN1CCCCC1	1550	800	–
COc1cc2c(N3CCN(/C(S)=N\Cc4ccc(C(F)(F)F)nc4)CC3)c(C#N)cnc2cc1OCCCN1CCCCC1	10	3	IC50 [3]: 40 nM; IC50 [4]: 20 nM; IC50 [5]: 10 nM
COc1cc2c(N3CCN(C(=S)Nc4ccc(Br)cc4)CC3)ncnc2cc1OCCN1CCCC1	470	350	–
COc1cc2c(N3CCN(C(=S)NCc4ccc(Cl)nc4)CC3)ncnc2cc1OCCCN1CCCCC1	60	20	–
COc1cc2c(N3CCN(/C(S)=N\c4ccncc4)CC3)ncnc2cc1OCCN1CCCCC1	400	240	IC50 [3]: > 30000 nM; IC50 [4]: 2970 nM; IC50 [5]: 980 nM
